Results from PMC11727334, “A self-immolative Kdn-glycoside substrate enables high-throughput screening for inhibitors of Kdnases” (Glycobiology, 2024).
Read-outs that look alike come from different tables or passages of the source.

Key:
[1] = target: T1, AfK (Aspergillus fumigatus, UniProt Q4WQS0); assay: HTS assay of AfK activity using Kdn glycoside 4 (384-well, stop solution); type: biochemical
T1 construct: AfK was expressed and purified as described by Telford et al; made in house
Experimental: We next miniaturized our assay for use in a 384-well microplate format by optimizing the quantity of detergent and checking for fluorescent signal stability (Figs 2A,S6 and S7 Supporting Information). In each well, we added a solution of buffer containing AfK (50 nM) and then added a library compound using a pin tool. We included both detergent (0.2% (v/v) Tween-20) and BSA (0.01% BSA) to reduce false positives arising from aggregation prone compounds ([Feng et al. 2007]). We then equilibrated the mixture prior to the addition of substrate 4, and the resultant solution was incubated for 1 h after which stop solution was added. To ensure cyclization was complete, the mixture was allowed to react for 1 h prior to measuring the fluorescence. Candidate hits identified in this primary screen were cherry picked and delivered into a gold plate that was used to confirm hits.
To each well in a 384-well microplate, enzyme (20 μL of a 50 nM stock solution) in reaction buffer (100 mM NaOAc, 0.2% Tween-20, 0.01% BSA, pH 4) was added to a library compound (200 nL of 20 μM TargetMol, 10 μM Chembridge), and this mixture was incubated at rt for 1 h. Then, substrate 4 (20 μL of a 50 μM stock) was added and the resultant mixture was incubated at rt for an additional 1 hr. Following addition of stop solution (40 μL of 1 M aqueous K2CO3, pH ≈ 12) to the mixture the plate was incubated for 1 h at rt. Next, the fluorescence for each well was measured (BioTek Neo 2) using an excitation and an emission wavelength of 360 and 450 nm, respectively. The collected data was analyzed using Prism 7.0. We used the known mechanism-based inactivator 2,3-diF-Kdn (3) as the positive control ([Watts et al. 2006]; [Khazaei et al. 2015]). That is, using 2,3-diFKdn at a concentration of 30 μM, following a 10 min incubation, gives a background signal that equates to >90% inhibition.

[2] = target: T2, Kdnase produced by A. fumigatus (AfK) (Aspergillus fumigatus, UniProt Q4WQS0); assay: Inhibition assay of recombinant AfK using 4MU-Kdn as substrate; type: biochemical
T2 construct: AfK was expressed and purified as described by Telford et al; made in house
Description: We purchase fresh commercial material for compounds 13 and 14 and performed inhibition assays using recombinant AfK (Methods, Fig. S8, Supporting Information). We determined IC50 values in quadruplicate using 4MU-Kdn as the substrate ([Yeung et al. 2013]). […] We submitted both compounds to a pan-assay interference compounds (PAINS) filter, a compilation of chemical substructures known to show promiscuous biological activities ([Baell and Nissink 2018]). […] We performed standard inhibition assays as described earlier using inhibitor 13 and these recombinant enzymes. […] We also tested inhibitor 13 with the sialidase MvNA, the closest structural homologue to AfK, that is known to cleave a multitude of substrates including Kdn glycosides ([Telford et al. 2011]).
Each 200 μM reaction mixture was incubated at rt for 2 min prior to the addition of purified sialidase. Inhibitor was added to the reaction mixture and allowed to incubate at rt between 0–60 min in 100 mM sodium acetate buffer pH 4.0 and 0.01% BSA prior to the addition of substrate. The kinetic parameters were determined from initial rate measurements using a substrate concentration of Km/4. The progress of the reaction was continuously monitored for 15 min using a fluorescence spectrophotometer (BioTek Neo 2) and excitation and emission wavelengths of 360 and 450 nm, respectively.

[3] = target: T2, Kdnase produced by A. fumigatus (AfK); set-up: method as in Telford et al. (3); settings: Table S2; ref Telford et al. (3); cited from earlier work
[4] = test system: AtK; assay: Differential scanning fluorimetry (DSF) thermal shift assay, AtK; type: binding, Aspergillus terreus; settings: inhibitor 500 µM
Description: (§1) We next used a separate biophysical technique, differential scanning fluorimetry (DSF), to confirm that these compound bind to the various Kdnases. Specifically, we measured protein melting temperatures in the presence of Kdn2en (2) and candidate ligands 13 and 17 (Fig. 3D). […] We repeated this DSF assay on AtK and TrK and we observed similar trends in thermal shifts (Fig. S14 and Tables S2,S3 and S4, Supporting Information). […] Accordingly, further follow up on this compound would need to be pursued with an awareness of this possibility.
(§2) Table S3. Differential scanning fluorometry-based (DSF) assay for inhibitors 2, 13, and 17 binding to Af, At, Tr and MvNA. Protein thermal shifts(ΔTm) using DMSO (2.5%), and inhibitors 2, 13, and 17 at 500 µM against the Kdnase of Af, At, Tr and MvNA. Assay done using 5–10 µM enzyme and 100 mM pH 4.0 NaOAc (pH 5.5 MvNA). A temperature range of 25°C to 95°C was used with a gradient of 0.05°C/sec. […]
(§3) Table S4. Thermal shifts (ΔTm) for stabilization of AfK, AtK, TrK and MvNA on inhibitor binding relative to the DMSO (2.5%) control. […]

[5] = target: T1, AfK; assay: Differential scanning fluorimetry (DSF) thermal shift assay, AfK; type: binding
Description: as §1, §2, §3

[6] = test system: TrK; assay: Differential scanning fluorimetry (DSF) thermal shift assay, TrK; type: binding, Trichophyton rubrum; settings: inhibitor 500 µM
Description: as §1, §2, §3

[7] = target: MvNA (Micromonospora viridifaciens, UniProt Q02834); assay: Differential scanning fluorimetry (DSF) thermal shift assay, MvNA; type: binding; settings: inhibitor 500 µM
Experimental: as §2, §3

[8] = target: T1, AfK; settings: Table S1; ref Telford et al., J Biol Chem, 2011, 10783; cited from earlier work
[9] = 100 mM pH 4.0 NaOAc, 5–10 µM enzyme

T2 sequence (Q4WQS0 21-406): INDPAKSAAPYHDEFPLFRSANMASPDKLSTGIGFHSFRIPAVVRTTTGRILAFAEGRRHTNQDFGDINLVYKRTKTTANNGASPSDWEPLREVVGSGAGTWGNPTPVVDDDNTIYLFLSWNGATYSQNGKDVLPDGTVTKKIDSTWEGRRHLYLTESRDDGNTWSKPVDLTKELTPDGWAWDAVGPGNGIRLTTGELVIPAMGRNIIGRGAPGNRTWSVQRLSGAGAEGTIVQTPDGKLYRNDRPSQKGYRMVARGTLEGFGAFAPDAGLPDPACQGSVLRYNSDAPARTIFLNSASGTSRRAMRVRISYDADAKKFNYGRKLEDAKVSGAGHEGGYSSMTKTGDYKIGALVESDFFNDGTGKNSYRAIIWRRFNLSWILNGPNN
T1 sequence (Q4WQS0 21-406): as above
MvNA, sequence (Q02834 38-647): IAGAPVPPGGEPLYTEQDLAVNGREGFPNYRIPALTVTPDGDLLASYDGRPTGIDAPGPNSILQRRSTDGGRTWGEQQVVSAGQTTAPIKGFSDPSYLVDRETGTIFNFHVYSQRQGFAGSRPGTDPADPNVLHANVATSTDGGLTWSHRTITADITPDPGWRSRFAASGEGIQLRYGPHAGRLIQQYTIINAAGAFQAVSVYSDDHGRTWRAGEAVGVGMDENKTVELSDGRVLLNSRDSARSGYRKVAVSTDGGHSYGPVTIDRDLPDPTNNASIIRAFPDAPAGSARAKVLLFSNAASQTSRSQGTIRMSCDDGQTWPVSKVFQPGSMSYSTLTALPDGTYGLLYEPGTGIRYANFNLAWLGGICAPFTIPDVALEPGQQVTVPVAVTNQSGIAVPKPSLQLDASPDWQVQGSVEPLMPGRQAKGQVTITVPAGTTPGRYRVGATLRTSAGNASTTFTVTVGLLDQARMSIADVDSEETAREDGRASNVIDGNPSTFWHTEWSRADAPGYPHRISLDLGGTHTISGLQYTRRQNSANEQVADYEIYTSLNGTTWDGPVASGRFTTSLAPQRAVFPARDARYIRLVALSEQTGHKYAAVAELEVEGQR

## CC(C)(C)c1cc(C=C(C#N)C#N)cc(C(C)(C)C)c1O [compound 14, Tyrphostin A9, reference compound]
[1]; TargetMol library pilot screen
  inhibitory activity verified in repeat assay of HTS hits: inhibit AfK
[2]
  IC50: 65.8 ± 1.7 µM
  Ki: 58.4 µM
[2]; AfK
  mode of inhibition (Lineweaver-Burk plots): competitive inhibitors
[2]; Table S2, values from this work
  Hill: –0.92

## O=C(O)[C@]1(F)O[C@@H]([C@H](O)[C@H](O)CO)[C@H](O)[C@@H](O)[C@H]1F [compound 3, 2,3-diF-α-Kdn]
[1]; 30 μM, 10 min incubation
  inhibition at 30 µM: > 90%
[1]; 30 μM, reacted with AfK for 10 min, read-out: fluorescent signal relative to the uninhibited sample
  activity at 30 µM: < 10%
[1]; following incubation (10 min)
  Hill Slope: -1.2
[1]; following incubation (10 min), read-out: apparent IC50
  IC50: 3.1 µM

## O=C(O)C1=C[C@H](O)[C@@H](O)[C@H]([C@H](O)[C@H](O)CO)O1 [compound 2, Kdn2en, reference compound]
[3]
  IC50: 556 µM
  Ki: 102 µM
[4]; Table S4
  Thermal shift (ΔTm) relative to DMSO (2.5%) control: +3.4 ± 0.1 °C
[4]; [9]
  protein melting temperature (DSF, Table S3): 55.3 ± 0.1 °C
[5]; AfK
  effect on thermal stability of the folded enzyme (DSF, in words): positive unfolding temperature shifts
[5]; inhibitor 500 µM, 100 mM pH 4.0 NaOAc, 5–10 µM enzyme
  protein melting temperature (DSF, Table S3): 53.2 ± 0.1 °C
[5]; read-out: Thermal shift (ΔTm) relative to DMSO (2.5%) control
  ΔTm at 500 µM: 1.7 °C
[6]; Table S4
  Thermal shift (ΔTm) relative to DMSO (2.5%) control: +15.0 ± 0.2 °C
[6]; [9]
  protein melting temperature (DSF, Table S3): 49.7 ± 0.2 °C
[7]; Table S4, read-out: Thermal shift (ΔTm) relative to DMSO (2.5%) control
  ΔTm at 500 µM: 0.5 °C
[7]; pH 5.5, 5–10 µM enzyme
  protein melting temperature (DSF, Table S3): 54.4 ± 0.1 °C

## Cc1cc(=O)oc2cc(O[C@]3(C(=O)O)C[C@H](O)[C@@H](O)[C@H]([C@H](O)[C@H](O)CO)O3)ccc12 [compound 1, 4-methylumbelliferyl 3-deoxy-D-glycero-D-galacto-non-2-ulopyranosidonic acid]
[8]
  Km: 230 ± 20 µM
  kcat: 41 ± 4 s–1
